In US20250100982A1, “PLEUROMUTILIN DERIVATIVE WITH THIAZOLE SIDE CHAIN AND PREPARATION AND APPLICATION” (SOUTH CHINA AGRICULTURAL UNIVERSITY, priority 2023, published 2025):
Values after ≈ are worked out from the molar mass of the structure shown.

Tests used:
clinical S. aureus 144 = assay: In vitro antibacterial experiment, broth dilution MIC; type: cell-based, Staphylococcus aureus; conditions: 37° C., 24 h, clinical isolate
From the text: (§1) A broth dilution method was used in the experiment. Tiamulin was selected as a control drug in the experiment. The tiamulin is a pleuromutilin antibiotic as well as one of the top ten veterinary antibiotics in the world.
(§2) The strains used in the experiment were methicillin-resistant Staphylococcus aureus ATCC43300, Staphylococcus aureus ATCC29213, clinical Staphylococcus aureus AD3, clinical S. aureus 144, Mycoplasma gallisepticum 352, 352 tiamulin induced drug-resistant bacteria and clinical isolates M47.
(§3) Preparation of target compound stock solution: 6.4 mg of target compound was accurately weighed, placed in a 5 mL volumetric flask, and dissolved with 0.25 mL of DMSO and 0.25 mL of Tween 80; then 4.5 mL of distilled water was added for fixing the volume; the solution was fully shaken to obtain a stock solution (1280 μg/mL); and the stock solution was filtered with a 0.22 μm filter membrane and sterilized, subpackaged into small tubes, and stored at −20° C. The control drug tiamulin was also prepared according to the above method.
(§4) Preparation of bacterial solution: the strains that were well preserved at −20° C. were taken out and inoculated on a new MH plate, and after culture at 37° C. for 24 h, a single colony was selected and inoculated in MH medium for culturing again for 24 h. The selected single colony was transferred to sterile normal saline and the turbidity was adjusted to 0.6 McF. At this moment, the concentration of the bacterial solution was 10^6 CFU/mL.
(§5) Preparation of MIC plate: a sterile 96-well plate was taken; 180 μL of MH broth medium was added to the first well, 100 μL of MH broth medium was added to the second well to the 12th well; 20 μL of target compound solution with a concentration of 1280 μg/mL was added to the first well; after even mixing, 100 μL of solution was added to the second well, and mixed well; 100 μL of solution was absorbed to the third well, and so on; and 100 μL of solution was absorbed to the 12th well and discarded. At this moment, the drug concentrations in the wells were: 128, 64, 32, 16, 8, 4, 2, 1, 0.5, 0.25, 0.125, and 0.06 μg/mL, and three parallel groups were made for the drugs of the concentrations.
(§6) Inoculation of bacterial solution: 100 μL of bacterial solution was added into the first well to the 12th well, so that the final bacterial solution concentration in each well was about 5×10^5 CFU/mL, and the drug concentrations in the first well to the 12th well were 64, 32, 16, 8, 4, 2, 1, 0.5, 0.25, 0.125, 0.06 and 0.03 μg/mL respectively. […] When a single jumping hole occurred in the microbroth dilution method, the maximum drug concentration for inhibiting bacteria was recorded, and the experiment shall be repeated if multiple jumping holes occurred.

[1] = system: Mycoplasma gallisepticum 352-tiamulin resistant strain; assay: microbe, parasite or virus in culture; type: cell-based; conditions: for MIC, Mycoplasma gallisepticum 352-tiamulin resistant strain: broth dilution, 37° C.
Method: (§7) The broth dilution method was adopted in the experiment. The tiamulin was selected as the control drug in the experiment.
(§8) The strains used in the experiment were Mycoplasma gallisepticum 352, 352-tiamulin resistant strain, and M47.
(§9) Preparation of the target compound stock solution: the compound was dissolved with 1 mL of DMSO, then fixed in volume with a 250 mL volumetric flask and fully shaken to obtain the stock solution (5120 μg/mL).
(§10) The stock solution was diluted in petri dishes with a doubling dilution method. Each petri dish contained 2 ml of medical solution, and the medical solution was diluted to 20 ml, so that the final concentrations of the compound were […] respectively.
(§11) 15 sterile 2 mL EP tubes were placed in each row. 0.9 mL of liquid medium was added to the first tube, and 0.5 mL of liquid medium was added to the other tubes respectively. 0.1 mL of prepared medical solution was added to the first tube and fully mixed. Then, 0.5 mL of medical solution was added to the second tube, and so on. Finally, 0.5 mL of medical solution was absorbed and discarded.

[2] = system: Mycoplasma gallisepticum 352; assay: In vitro inhibition experiment of mycoplasma activity, broth dilution MIC; type: cell-based; conditions: for MIC, Mycoplasma gallisepticum 352: 37° C.
Method: as §7, §8, §9, §10, §11

[3] = system: Mycoplasma gallisepticum M47; assay: as above; type: cell-based; conditions: clinical isolate; for MIC, Mycoplasma gallisepticum M47: 37° C.
Method: as §7, §8, §9, §10, §11

[4] = system: Staphylococcus aureus ATCC29213; assay: In vitro antibacterial experiment, broth dilution MIC; type: cell-based; conditions: 24 h; for MIC, S. aureus ATCC 29213: 37° C.
From the text: as §1, §2, §3, §4, §5, §6

[5] = system: clinical Staphylococcus aureus AD3; assay: as above; type: cell-based; conditions: 37° C., 24 h, clinical isolate
From the text: as §1, §2, §3, §4, §5, §6

[6] = system: methicillin-resistant Staphylococcus aureus ATCC43300; assay: microbe, parasite or virus in culture; type: cell-based; conditions: 24 h; for MIC, MRSA ATCC 43300: broth dilution, 37° C.
From the text: as §1, §2, §3, §4, §5, §6

Row | Compound | MIC, S. aureus 144 (clinical S. aureus 144) [µg/mL] | MIC, Mycoplasma gallisepticum 352-tiamulin resistant strain [1] [µg/mL] | MIC, Mycoplasma gallisepticum 352 [2] [µg/mL] | MIC, Mycoplasma gallisepticum M47 [3] [µg/mL] | MIC, S. aureus ATCC 29213 [4] [µg/mL] | MIC, S. aureus AD3 [5] [µg/mL] | MIC, MRSA ATCC 43300 [6] [µg/mL] | MIC (clinical S. aureus 144; Staphylococcus aureus) [µg/mL] | MIC ([1]; Mycoplasmoides gallisepticum, read-out: MIC, Mycoplasma gallisepticum 352-tiamulin resistant strain) [µg/mL] | MIC ([2]; Mycoplasmoides gallisepticum, 352, 37° C.) [µg/mL] | MIC ([3]; Mycoplasmoides gallisepticum, M47, 37° C.) [µg/mL] | MIC ([4]; Staphylococcus aureus, ATCC29213, 37° C., read-out: MIC, S. aureus ATCC 29213) [µg/mL] | MIC ([5]; Staphylococcus aureus, read-out: MIC, S. aureus AD3) [µg/mL] | MIC ([6]; Staphylococcus aureus, ATCC 43300 / MRSA, read-out: MIC, MRSA ATCC 43300) [µg/mL]
1 | C=CC1(C)CC(OC(=O)CSc2ncc(NC(=O)C(Cl)(Cl)Cl)s2)C2(C)C(C)CCC3(CCC(=O)C32)C(C)C1O (stereo not drawn) [Compound 23] | 2 (≈ 3.13 µM) | 1 (≈ 1.57 µM) | 0.125 (≈ 0.196 µM) | 4 (≈ 6.27 µM) | 2 (≈ 3.13 µM) | 1 (≈ 1.57 µM) | 1 (≈ 1.57 µM) | – | – | – | – | – | – | –
2 | C=CC1(C)CC(OC(=O)CSc2ncc(NC(=O)C(C)(C)CC)s2)C2(C)C(C)CCC3(CCC(=O)C32)C(C)C1O (stereo not drawn) [Compound 18] | 0.5 (≈ 0.846 µM) | 0.5 (≈ 0.846 µM) | 0.03 (≈ 0.0508 µM) | 1 (≈ 1.69 µM) | 0.25 (≈ 0.423 µM) | 0.25 (≈ 0.423 µM) | 0.25 (≈ 0.423 µM) | – | – | – | – | – | – | –
3 | C=CC1(C)CC(OC(=O)CSc2ncc(NC(=O)C3CCC3)s2)C2(C)C(C)CCC3(CCC(=O)C32)C(C)C1O (stereo not drawn) [Compound 2] | 0.25 (≈ 0.435 µM) | 0.25 (≈ 0.435 µM) | 0.008 (≈ 0.0139 µM) | 0.5 (≈ 0.87 µM) | 0.125 (≈ 0.217 µM) | 0.125 (≈ 0.217 µM) | 0.0625 (≈ 0.109 µM) | – | – | – | – | – | – | –
4 | C=C[C@]1(C)C[C@@H](OC(=O)CSCCN(CC)CC)[C@]2(C)[C@H](C)CC[C@]3(CCC(=O)[C@H]32)[C@@H](C)[C@@H]1O [Tiamulin, reference compound] | – | – | – | – | – | – | – | 1 (≈ 2.03 µM) | 0.25 (≈ 0.506 µM) | ≤ 0.004 | 0.125 (≈ 0.253 µM) | 1 (≈ 2.03 µM) | 1 (≈ 2.03 µM) | 0.5 (≈ 1.01 µM)
5 | C=CC1(C)CC(OC(=O)CSc2ncc(NC(=O)C3CCCCC3)s2)C2(C)C(C)CCC3(CCC(=O)C32)C(C)C1O (stereo not drawn) [Compound 4] | 0.0625 (≈ 0.104 µM) | 0.25 (≈ 0.415 µM) | 0.015 (≈ 0.0249 µM) | 1 (≈ 1.66 µM) | 0.03125 (≈ 0.0518 µM) | 0.0625 (≈ 0.104 µM) | 0.125 (≈ 0.207 µM) | – | – | – | – | – | – | –
6 | C=CC1(C)CC(OC(=O)CSc2ncc(NC(=O)COC(C)=O)s2)C2(C)C(C)CCC3(CCC(=O)C32)C(C)C1O (stereo not drawn) [Compound 10] | 0.0625 (≈ 0.105 µM) | 0.03 (≈ 0.0506 µM) | ≤0.004 | 0.03 (≈ 0.0506 µM) | 0.125 (≈ 0.211 µM) | 0.125 (≈ 0.211 µM) | 0.0625 (≈ 0.105 µM) | – | – | – | – | – | – | –
